The values that follow come from patent US9814709B2, “Bruton's tyrosine kinase inhibitor” (HEFEI INSTITUTES OF PHYSICAL SCIENCE, CHINESE ACADEMY OF …, priority 2014, dated 2017).

Assay [1] addresses BTK (Homo sapiens, UniProt Q06187). Nature of the assay: Phosphorylation of BTK in IL2-stimulated PBMC, Western Blot. Type of assay: cell-based. Details: endogenous in cells; host or cells: human peripheral blood mononuclear cells (PBMC). To be noted: 3.5 hours, then 20 ng/mL IL2 30 min. Here is the method: In order to test the effect of Compound 1 on human cells, a peripheral blood mononuclear cell (PBMC) culture system with BTK signal being activated by in vitro stimulation was introduced. The phenomena occurred in the clinical patients were simulated by stimulating PBMC of a normal human with IL2 to activate the BTK signal. PBMC cells were seeded in 6-well plate and Compound 1 of different concentrations (0, 0.01, 0.1, 1 μM), 1 μM of PCI-32765 and 1 μM of Compound 19 were added; 3.5 hours later after the administration, the samples were stimulated with 20 ng/ML IL2 for 30 min and then were collected. Western Blot assay was performed. […] The negative control Compound 19 had no effect on the phosphorylation of BTK.

The target of assay [2] is T1, BTK C481S protein (Homo sapiens, UniProt Q06187, C481S).
T1 construct: made in house; host or cells: 293T cells
T1 sequence (Q06187 whole entry C481S): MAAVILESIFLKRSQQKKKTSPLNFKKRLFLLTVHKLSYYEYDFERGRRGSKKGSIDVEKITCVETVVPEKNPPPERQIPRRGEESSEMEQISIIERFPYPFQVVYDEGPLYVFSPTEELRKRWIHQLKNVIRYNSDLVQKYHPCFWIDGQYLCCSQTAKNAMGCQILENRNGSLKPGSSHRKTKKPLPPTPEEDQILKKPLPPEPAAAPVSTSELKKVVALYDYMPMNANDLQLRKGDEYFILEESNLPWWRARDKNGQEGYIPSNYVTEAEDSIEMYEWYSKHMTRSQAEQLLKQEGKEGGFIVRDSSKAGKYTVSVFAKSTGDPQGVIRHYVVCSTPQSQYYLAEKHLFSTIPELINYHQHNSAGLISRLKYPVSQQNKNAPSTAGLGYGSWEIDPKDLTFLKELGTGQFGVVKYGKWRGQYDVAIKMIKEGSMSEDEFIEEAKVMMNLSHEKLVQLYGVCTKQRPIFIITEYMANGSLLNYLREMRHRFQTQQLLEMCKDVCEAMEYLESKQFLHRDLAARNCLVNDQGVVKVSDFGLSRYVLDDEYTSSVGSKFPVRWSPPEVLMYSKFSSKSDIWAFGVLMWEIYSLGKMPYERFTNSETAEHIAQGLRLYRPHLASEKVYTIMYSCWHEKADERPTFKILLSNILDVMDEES
The experiment in a line: Btk acellular kinase assay, BTK C481S mutant protein purified from transfected 293T cells. Type of assay: biochemical. To be noted: 3-1000 nM, 100 μM ATP. The method, then:
(§1) The BTK wild-type plasmid and the BTK mutant plasmid (C481S) were respectively transfected into 293T cells (purchased from ATCC), and the resultant cells were marked as BTK WT 293T cells and BTK C481S 293T cells, respectively. After cell culture for 2 days, the cells were harvested and purified to give BTK WT and BTK C481S proteins. The compounds of formula (I) were added to the BTK WT and BTK C481S proteins at different concentrations of 3 nM, 10 nM, 30 nM, 100 nM, 300 nM and 1000 nM, respectively, and reacted at room temperature for 30 min, followed by the addition of 100 μM ATP at 37° C. and reacting for 20 min.

In assay [3] the test system is SD rat adjuvant arthritis (AA) model. Nature of the assay: SD rat adjuvant arthritis (AA) model, arthritis index. It is filed as in vivo. Here is the method: In this example, SD rat adjuvant arthritis (AA) model (purchased from the Experimental Animal Center of Anhui Province) was used. PCI-32765 and methotrexate (MTX) were used as positive control (both purchased from Shanghai Chemexpress). The therapeutic effect of Compound 1 on AA rats was studied via the combination of in vivo and in vitro administration. 10 mg/nal of complete Freund's adjuvant (CFA, purchased from Shanghai Chemexpress) was mixed well, and 0.1 ml of CFA was intracutaneously injected into each rat at right posterior plantar to induce inflammation. The normal group was injected with saline via the same method. On the 17th day, the successful modeling male SD rats were randomly divided into 7 groups with 10 rats in each group, namely the model group, the small/medium/large dose of Compound 1 group (12.5, 25, 50 mg/kg/per administration, intraperitoneal injection, one administration per day for 16 days), the Compound 19 group (25 mg/kg/per administration, intraperitoneal injection, one administration per day for 16 days), the positive control PCI-32765 group (25 mg/kg/per administration, intraperitoneal injection, one administration per day for 16 days), the MTX group (0.5 mg/kg, intragastrical, one administration every 3 days, totally 6 times). The rats in the model group were intraperitoneally injected with the same amount of DMSO solution.

For assay [4], the target named is T2, BTK WT protein (Homo sapiens, UniProt Q06187).
T2 construct: made in house; host or cells: 293T cells
T2 sequence (Q06187 whole entry): as the sequence (Q06187 whole entry C481S) above, with S481C counted along it
The experiment in a line: Btk acellular kinase assay, BTK WT protein purified from transfected 293T cells. It is filed as biochemical. As to conditions: 100 μM ATP. The method, then:
as §1

Assay [5] deals with prostate cancer cells RV-1. Nature of the assay: Cancer cell growth, Cell Titer-Glo. Type of assay: cell-based. As to conditions: RV-1, 72 hrs; read-out: Half inhibitory concentration IC50. The text has this: (§2) We further assessed the selectivity of Compound 1 to inhibit the proliferation of cancer cells, by testing the effect of Btk inhibitor on the growth of cancer cells. In the example, we used B-lymphoma cell Ramos, cervical cancer cells HeLa, prostate cancer cells DU145, RV-1 and C4-2, colon cancer cells HCT116, blood cancer cells K562, B-cell lymphoma cells U2932, diffuse large B-cell lymphoma cells OCI-LY10, diffuse histiocytic lymphoma cells SU-DHL-2, diffuse large B-cell lymphoma cells TMD8, human non-small cell lung cancer cells H1975 (expressing EGFR L858R/T790M double mutant gene), human lung adenocarcinoma cells A549 (expressing wild-type EGFR gene), human non-small cell lung cancer cells H460 (expressing wild-type EGFR gene), mantel cell lymphoma (MCL) cells Z-138, EB virus infected human peripheral lymphocyte cells JVM-2, MCL cells REC-1, leukemia cells AML-3, acute promyelocytic leukemia cell line NB-4(Lu+), MDS-RAEB (myelodysplastic syndrome-excessive blasts) cell line SKM-1 human leukemia cell Nomo-1, human B-cell leukemia cell line NALM6, human leukocyte leukemia cells HEL, human T-cell lymphoma cells PF-382, acute myelocytic leukemia (AML) cell line MOLM14, AML cell line MOLM13, human Burkitt's lymphoma cells Namalwa, mouse pro-B cells BaF3, all of where were purchased from ATCC. Also used were mouse TEL-EGFR-BaF3 (stably expressing TEL-EGFR activated kinase), mouse TEL-EGFR/T790-BaF3 cells (stably expressing TEL-EGFR-T790M activated mutant kinase), mouse TEL-EGFR/L858R-BaF3 cells (stably expressing TEL-EGFR-L858R activated mutant kinase), mouse TEL-EGFR/T790/L858R-BaF3 (stably expressing TEL-EGFR-T790M/L858R activated mutant kinase), mouse TEL-BMX-BaF3 cells (stably expressing TEL-BMX activated kinase), mouse TEL-JAK1-BaF3 cells (stably expressing TEL-JAK1 activated kinase), mouse TEL-JAK2-BaF3 cells (stably expressing TEL-JAK2 activated kinase), mouse TEL-JAK3-BaF3 cells (stably expressing TEL-JAK3 activated kinase), where were all established by our laboratory via the following method: the kinase domain sequences of human EGFR, BMX, JAK1, JAK2, JAK3 were amplified respectively by PCR, and these kinase were inserted into the MSCV-Puro vectors with N-terminal TEL segment (Clontech); if there was a mutation, the mutation of the corresponding site was conducted by Site-Directed Mutagenesis kit (Stratagene); the resultants were stably transfected into mouse BaF3 cells by the means of retrovirus, and the IL-3 growth factors were removed, and eventually the EGFR, BMX, JAK1, JAK2, JAK3-transferred protein dependent cell lines were obtained.
(§3) In the example, different concentrations (0.000508 μM, 0.00152 μM, 0.00457 μM, 0.0137 μM, 0.0411 μM, 0.123 μM, 0.370 μM, 1.11 μM, 3.33 μM, 10 μM) of Compound 1 and Compound 19 were added into above cells, and were incubated for 72 hrs. The number of viable cells was determined by quantitating ATP in viable cells using Cell Titer-Glo® (Promega, U.S.) chemiluminescence cell viability assay kit.

The test system of assay [6] is diffuse large B-cell lymphoma cells TMD8. Nature of the assay: Cancer cell growth, Cell Titer-Glo. To be noted: Homo sapiens; TMD8, 72 hrs; read-out: Half inhibitory concentration IC50. It is filed as cell-based.
Description: as §2, §3

The subject of assay [7] is MDS-RAEB cell line SKM-1. The experiment in a line: Cancer cell growth, Cell Titer-Glo. It is filed as cell-based. As to conditions: Homo sapiens; SKM-1, 72 hrs; read-out: Half inhibitory concentration IC50.
Description: as §2, §3

pIC50: −log10 of the molar value. A value given as a limit tells only on which side of the number the result lay.

BTK, sequence (Q06187 whole entry): as the sequence (Q06187 whole entry C481S) above, with S481C counted along it

For `CCC(=O)Nc1cc(-n2c(=O)ccc3cnc4ccc(-n5cccn5)cc4c32)ccc1C` [Compound 19, N-(2-methyl-5-(2-oxo-9-(1H-pyrazol-1-yl)benzo[H][1,6]naphthyridin-1(2H)-yl)phenyl) propionamide], in assay [1] (1 μM), the “effect on phosphorylation of BTK in PBMCs” value is “no effect”. Also, the “inhibitory effect on BTK C481S” value in assay [2] is given as “no inhibitory effect”. For the same compound, the “effect on the rat arthritis index” value in assay [3] (25 mg/kg intraperitoneal once per day for 16 days) is recorded as “little effect”. Moreover, the “inhibitory effect on BTK WT” value in assay [4] (3-1000 nM) was “no inhibitory effect”. The pIC50 in assay [5], in assay [6] and in assay [7] was below 5.00 each time.

Take `C=CC(=O)Nc1cc(-n2c(=O)ccc3cnc4ccc(-n5cccn5)cc4c32)ccc1C` [Compound 1, N-(2-methyl-5-(2-oxo-9-(1H-pyrazol-1-yl)benzo[H][1,6]naphthyridin-1(2H)-yl)phenyl)acrylamide]: the “effect on phosphorylation of BTK in PBMCs” value in assay [1] (1 μM) is listed as “comparative to that of the positive control”; in assay [1] (0.01, 0.1, 1 μM, some dose-dependency), “significantly inhibited”. Besides, the “inhibitory effect on BTK C481S” value in assay [2] is “no inhibition”. Also, the “effect on arthritis index of rats compared with the model group” value in assay [3] (12.5 mg/kg intraperitoneal once per day, starting from day 21) is “significantly reduced”. For the same compound, in assay [3] (12.5 mg/kg intraperitoneal once per day, starting from day 24), the “effect on arthritis index of rats” value is listed as “significantly reduce”. The pIC50 in assay [4] (30 min room temperature preincubation, 37° C., 20 min) was 7.25; in assay [5] it was below 5.00; in assay [6], 5.46; in assay [7], 5.82.
